Test results: patent US9662310B2, “Cyclopropanecarboxylic acid derivative” (DAIICHI SANKYO COMPANY, LIMITED, priority 2010, dated 2017)

Biological target: TAFIa (Homo sapiens (Human), UniProt Q96IY4)
Test: Determination of TAFIa enzyme inhibitory activity (FAAK substrate degradation)
Format: biochemical
Conditions: TAFI activated with human thrombin / rabbit lung thrombomodulin; substrate FAAK, absorbance at 330 nm; di-p-toluenesulfonate; read-out: TAFIa IC50
Experimental: Determination of TAFIa Enzyme Inhibitory Activity
HEPES buffered saline (20 mM HEPES, 150 mM NaCl, pH 7.4; hereinafter, referred to as HBS) was used in the preparation of a reaction solution. To 12 μL of a 250 μg/mL TAFI solution, 30 μL of an HBS solution containing 4 U/mL human thrombin, 12 U/mL rabbit lung thrombomodulin, and 12 mM CaCl2 was added, and the mixture was gently stirred. Then, TAFI was activated at room temperature. Ten minutes later, thrombin was neutralized by the addition of 10 μL of 100 μM PPACK (thrombin inhibitor) to terminate the activation of TAFI. The formed TAFIa was stored in ice and diluted immediately before use in determination with 2050 μL of an HBS solution containing BSA (bovine serum albumin) adjusted to 0.1% in terms of the final concentration.
(2) Determination of TAFIa Inhibitory Activity
A test substance was dissolved in HBS to prepare a 10-fold dilution series of evaluation concentrations. 80 μL of the TAFIa solution and 10 μL of the test substance were added to each well of a 96-well plate and mixed by shaking for 10 minutes. 10 μL of furylacryloyl-alanyl-lysine (FAAK) adjusted to 5 mg/mL was added to each well, and the change in the absorbance of this mixed solution at 330 nm was read for 30 minutes to determine the degradation rate of the substrate.
(3) Calculation of Inhibitory Activity IC50
The degradation rate of the substrate in each well was applied to a standard curve prepared using the dilution series of the TAFIa solution to calculate TAFIa activity.

Sequence of TAFIa (Q96IY4 115-423): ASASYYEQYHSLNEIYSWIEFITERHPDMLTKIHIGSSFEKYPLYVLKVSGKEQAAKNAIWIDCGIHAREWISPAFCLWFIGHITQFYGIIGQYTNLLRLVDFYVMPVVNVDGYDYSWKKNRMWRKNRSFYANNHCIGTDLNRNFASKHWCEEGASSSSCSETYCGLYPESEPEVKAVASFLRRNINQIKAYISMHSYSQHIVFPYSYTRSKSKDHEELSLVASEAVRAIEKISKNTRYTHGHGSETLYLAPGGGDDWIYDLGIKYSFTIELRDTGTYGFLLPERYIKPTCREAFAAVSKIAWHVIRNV

Row | Structure (SMILES) | IC50 [nM]
1 | NCCC[C@H]1C[C@]1(C(=O)O)c1cn(-c2ccccc2)cn1 [Example 31, (1R,2S)-2-(3-Aminopropyl)-1-(1-phenyl-1H-imidazol-4-yl)cyclopropanecarboxylic acid di-p-toluenesulfonate] | 15

Same assay, conditions: TAFI activated with human thrombin / rabbit lung thrombomodulin; substrate FAAK, absorbance at 330 nm; read-out: TAFIa IC50

Row | Structure (SMILES) | IC50 [nM]
2 | NCCC[C@H]1C[C@]1(C(=O)O)c1cn(-c2ncccn2)cn1 (relative stereo) [Example 39, (1R*,2S*)-2-(3-Aminopropyl)-1-(1-pyrimidin-2-yl-1H-imidazol-4-yl)cyclopropanecarboxylic acid] | 30
3 | N#Cc1ccc(-n2cnc([C@@]3(C(=O)O)C[C@@H]3CCCN)c2)cc1 (relative stereo) [Example 40, (1R*,2S*)-2-(3-Aminopropyl)-1-[1-(4-cyanophenyl)-1H-imidazol-4-yl]cyclopropanecarboxylic acid] | 29
4 | NCCC[C@H]1C[C@]1(C(=O)O)c1cn(-c2ccc(F)cn2)cn1 (relative stereo) [Example 41, (1R*,2S*)-2-(3-Aminopropyl)-1-[1-(5-fluoropyridin-2-yl)-1H-imidazol-4-yl]cyclopropanecarboxylic acid] | 19
5 | NCCC[C@H]1C[C@]1(C(=O)O)c1cn(-c2ccc3ccccc3n2)cn1 (relative stereo) [Example 42, (1R*,2S*)-2-(3-Aminopropyl)-1-(1-quinolin-2-yl-1H-imidazol-4-yl)cyclopropanecarboxylic acid] | 58
6 | NCCC[C@H]1C[C@]1(C(=O)O)c1cn(-c2ccc3occc3c2)cn1 (relative stereo) [Example 43, (1R*,2S*)-2-(3-Aminopropyl)-1-[1-(1-benzofuran-5-yl)-1H-imidazol-4-yl]cyclopropanecarboxylic acid] | 26
7 | COc1ccc(-n2cnc([C@@]3(C(=O)O)C[C@@H]3CCCN)c2)nc1 (relative stereo) [Example 44, (1R*,2S*)-2-(3-Aminopropyl)-1-[1-(5-methoxypyridin-2-yl)-1H-imidazol-4-yl]cyclopropanecarboxylic acid] | 16
8 | NCCC[C@H]1C[C@]1(C(=O)O)c1cn(-c2ccc(Cl)cn2)cn1 (relative stereo) [Example 45, (1R*,2S*)-2-(3-Aminopropyl)-1-[1-(5-chloropyridin-2-yl)-1H-imidazol-4-yl]cyclopropanecarboxylic acid] | 63
9 | NCCC[C@H]1C[C@]1(C(=O)O)c1cn(-c2cc3ccccc3cn2)cn1 (relative stereo) [Example 46, (1R*,2S*)-2-(3-Aminopropyl)-1-(1-isoquinolin-3-yl-1H-imidazol-4-yl)cyclopropanecarboxylic acid] | 16
10 | NCCC[C@H]1C[C@]1(C(=O)O)c1cn(-c2cccc3ccccc23)cn1 (relative stereo) [Example 47, (1R*,2S*)-2-(3-Aminopropyl)-1-[1-(1-naphthyl)-1H-imidazol-4-yl]cyclopropanecarboxylic acid] | 54
11 | Cc1ccc(-n2cnc([C@@]3(C(=O)O)C[C@@H]3CCCN)c2)nc1 (relative stereo) [Example 49, (1R*,2S*)-2-(3-Aminopropyl)-1-[1-(5-methylpyridin-2-yl)-1H-imidazol-4-yl]cyclopropanecarboxylic acid] | 18
12 | CC(C)(CN)C[C@@H]1C[C@]1(C(=O)O)c1cn(-c2ccccc2)cn1 (relative stereo) [Example 52, (1R*,2R*)-2-(3-Amino-2,2-dimethylpropyl)-1-(1-phenyl-1H-imidazol-4-yl]cyclopropanecarboxylic acid] | > 300
13 | Cc1ccnc(-n2cnc([C@@]3(C(=O)O)C[C@@H]3CCCN)c2)c1 (relative stereo) [Example 64, (1R*,2S*)-2-(3-Aminopropyl)-1-[1-(4-methylpyridin-2-yl)-1H-imidazol-4-yl]cyclopropanecarboxylic acid] | 19
14 | Cc1cccc(-n2cnc([C@@]3(C(=O)O)C[C@@H]3CCCN)c2)n1 (relative stereo) [Example 65, (1R*,2S*)-2-(3-Aminopropyl)-1-[1-(6-methylpyridin-2-yl)-1H-imidazol-4-yl]cyclopropanecarboxylic acid] | 73
15 | CC(C)(C)CCn1cnc([C@]2(C(=O)O)C[C@H]2CCCN)c1 [Example 27, (1S,2R)-2-(3-Aminopropyl)-1-[1-(3,3-dimethylbutyl)-1H-imidazol-4-yl]cyclopropanecarboxylic acid] | > 100
16 | NCCC[C@@H]1C[C@@]1(C(=O)O)c1cn(-c2ccccc2)cn1 [Example 29, (1S,2R)-2-(3-Aminopropyl)-1-(1-phenyl-1H-imidazol-4-yl)cyclopropanecarboxylic acid] | > 10000
17 | NCCC[C@H]1C[C@]1(C(=O)O)c1cn(-c2ccccc2)cn1 [Example 30, (1R,2S)-2-(3-Aminopropyl)-1-(1-phenyl-1H-imidazol-4-yl)cyclopropanecarboxylic acid] | 13
18 | NCCC[C@H]1C[C@]1(C(=O)O)c1cn(-c2ccccn2)cn1 [Example 48, (1R,2S)-2-(3-Aminopropyl)-1-(1-pyridin-2-yl-1H-imidazol-4-yl)cyclopropanecarboxylic acid] | 11
19 | C[C@@H](CN)C[C@H]1C[C@]1(C(=O)O)c1cn(-c2ccccc2)cn1 [Example 50, (1R,2S)-2-[(2R)-3-Amino-2-methylpropyl]-1-(1-phenyl-1H-imidazol-4-yl)cyclopropanecarboxylic acid] | 14
20 | C[C@H](CN)C[C@H]1C[C@]1(C(=O)O)c1cn(-c2ccccc2)cn1 [Example 51, (1R,2S)-2-[(2S)-3-Amino-2-methylpropyl]-1-(1-phenyl-1H-imidazol-4-yl)cyclopropanecarboxylic acid] | 35
21 | C[C@@H](CN)C[C@H]1C[C@]1(C(=O)O)c1cn(-c2ccccn2)cn1 [Example 54, (1R,2S)-2-[(2R)-3-Amino-2-methylpropyl]-1-(1-pyridin-2-yl-1H-imidazol-4-yl]cyclopropanecarboxylic acid] | 11
22 | C[C@@H](CN)C[C@@H]1C[C@@]1(C(=O)O)c1cn(-c2ccccn2)cn1 [Example 55, (1S,2R)-2-[(2R)-3-Amino-2-methylpropyl]-1-(1-pyridin-2-yl-1H-imidazol-4-yl]cyclopropanecarboxylic acid] | > 3000
23 | C[C@H](CN)C[C@H]1C[C@]1(C(=O)O)c1cn(-c2ccccn2)cn1 [Example 56, (1R,2S)-2-[(2S)-3-Amino-2-methylpropyl]-1-(1-pyridin-2-yl-1H-imidazol-4-yl]cyclopropanecarboxylic acid] | 33
24 | C[C@H](CN)C[C@@H]1C[C@@]1(C(=O)O)c1cn(-c2ccccn2)cn1 [Example 57, (1S,2R)-2-[(2S)-3-Amino-2-methylpropyl]-1-(1-pyridin-2-yl-1H-imidazol-4-yl]cyclopropanecarboxylic acid] | 490
25 | Cc1ccc(-n2cnc([C@@]3(C(=O)O)C[C@@H]3C[C@@H](C)CN)c2)nc1 [Example 58, (1R,2S)-2-[(2R)-3-Amino-2-methylpropyl]-1-[1-(5-methylpyridin-2-yl)-1H-imidazol-4-yl]cyclopropanecarboxylic acid] | 8.7
26 | Cc1ccc(-n2cnc([C@]3(C(=O)O)C[C@H]3C[C@@H](C)CN)c2)nc1 [Example 59, (1S,2R)-2-[(2R)-3-Amino-2-methylpropyl]-1-[1-(5-methylpyridin-2-yl)-1H-imidazol-4-yl]cyclopropanecarboxylic acid] | 500
27 | CC[C@@H](CN)C[C@H]1C[C@]1(C(=O)O)c1cn(-c2ccccn2)cn1 [Example 60, (1R,2S)-2-[(2R)-2-(Aminomethyl)butyl]-1-(1-pyridin-2-yl-1H-imidazol-4-yl)cyclopropanecarboxylic acid] | 8.3
28 | CC[C@@H](CN)C[C@@H]1C[C@@]1(C(=O)O)c1cn(-c2ccccn2)cn1 [Example 61, (1S,2R)-2-[(2R)-2-(Aminomethyl)butyl]-1-(1-pyridin-2-yl-1H-imidazol-4-yl)cyclopropanecarboxylic acid] | 360

Same assay, conditions: TAFIa IC50

Row | Structure (SMILES) | IC50 [nM]
29 | CC(C)(C)CCn1cnc(C2(C(=O)O)CC2CCCN)c1 (single isomer, unassigned) [Example 1, (1R*,2S*)-2-(3-Aminopropyl)-1-[1-(3,3-dimethylbutyl)-1H-imidazol-4-yl]cyclopropanecarboxylic acid] | 8.7
30 | CC(C)(C)CCn1cnc(C2(C(=O)O)CC2CCCN)c1 (single isomer, unassigned) [Example 2, (1R*,2R*)-2-(3-Aminopropyl)-1-[1-(3,3-dimethylbutyl)-1H-imidazol-4-yl]cyclopropanecarboxylic acid] | 420

Same assay, conditions: read-out: TAFIa IC50

Row | Structure (SMILES) | IC50 [nM]
31 | CC(C)(C)CCn1cnc([C@@]2(C(=O)O)C[C@@H]2CCCN)c1 [Example 28, (1R,2S)-2-(3-Aminopropyl)-1-[1-(3,3-dimethylbutyl)-1H-imidazol-4-yl]cyclopropanecarboxylic acid] | 4.5
32 | CCC(CN)CC1C[C@]1(C(=O)O)c1cn(-c2ccccc2)cn1 (stereo partly drawn) [Example 53, (1R,2S)-2-[(2-Aminomethyl)butyl]-1-(1-phenyl-1H-imidazol-4-yl]cyclopropanecarboxylic acid] | 13
